# Results: patent publication US20110144213A1, “ANHYDROUS DEPIGMENTING COMPOSITIONS COMPRISING A SOLUBILIZED PHENOLIC COMPOUND” (priority 2008, published 2011)
# Where two headings read alike, the source gives them in different places.
# How the values were obtained:
# [1] = Stability of the active agents in solvent oils and lipophilic surfactants (HPLC assay against reference substance, colour); type: physicochemical; details: for Colour: 40° C.
# Excerpt: Stability of Hydroquinone in Solvent Oils and Lipophilic Surfactants
# Assay technique by HPLC against reference substance.
# The initial time (T0) is considered as 100%
# The above table makes it possible to evaluate the stability of hydroquinone in the various solubilizing agents identified previously.
# Stability of Rucinol in Solvent Oils and Lipophlic Surfactants
# The initial time (T0) is considered as 100%.
# The table below makes it possible to evaluate the stability of rucinol in the solubilizing agents identified previously.
# [2] = cited from earlier work
# [3] = Max. solubility of the active agents in solvent oils, lipophilic surfactants and alcoholic or glycolic solvents (HPLC); type: physicochemical; details: rucinol in all the solvents tested
# Excerpt: a) Solubilities and Stabilities of Hydroquinone in Solvent Oils and Lipophilic Surfactants Hydroquinone Solubilities
# The above table makes it possible to identify which solvents are the most solubilizing for the active agent, for optimum selection of the ingredients of the composition. However, the choice of solvent will also be made on the basis of the results of the stability of hydroquinone in these solvents. […]
# b) Solubilities and Stabilities of Rucinol in Solvent Oils and Lipophilic Surfactants […]
# However, the optimum choice of solvent will also be made on the basis of the results of the stability of rucinol in these solvents.
SMILES,"Colour ([1]; hydroquinone in Ethanol/water (20/80), 1 MONTH)","Colour ([1]; hydroquinone in Glycerol, 1 MONTH)","Colour ([1]; hydroquinone in Propylene glycol, 3 MONTHS)","stability of hydroquinone (in words) ([1]; in Cremophor EL, browning that becomes pronounced over time and with temperature)","stability of hydroquinone (in words) ([1]; in Crodamol DA, Arlamol E and Labrasol, macroscopic observation of the colour)","stability of hydroquinone (in words) ([1]; in solvents of the prior art such as glycols, RT and 40° C., absence of antioxidants)",incidence of the irritation ([2]; 10% hydroquinone concentrations),incidence of the irritation ([2]; concentration of 2%),incidence of the irritation ([2]; preparations with a 5% dose),solubility (in words) [3]
"Oc1ccc(O)cc1 [Hydroquinone, hydroquinone]",Dark,Dark,Dark,macroscopic instability,good chemical and physical stability,a colouration is observed,relatively high,virtually nonexistent,reduces greatly,–
"CCCCc1ccc(O)cc1O [Rucinol, 4-butylresorcinol]",–,–,–,–,–,–,–,–,–,very good solubility
